Assay results reported in PubChem BioAssay AID1259407 (Chemical Carcinogenesis Research Information System (CCRIS), 2018).
The source made the active and inactive calls. How the calls were made is not given here.

Tested on: CCRIS mutagenicity, Ames/micronucleus/aberration tests
Assay: CCRIS mutagenicity studies
[1] = Test System: AMES SALMONELLA TYPHIMURIUM, Strain/Indicator: TA100, Metabolic Activation: NONE, Method: PREINCUBATION

## CCCCCCCCCCCCCCCCCC(N)=O
Test System: AMES SALMONELLA TYPHIMURIUM, Strain/Indicator: TA98, Metabolic Activation: NONE, Method: PREINCUBATION
  mutagenic call: inactive; negative
Test System: AMES SALMONELLA TYPHIMURIUM, Strain/Indicator: TA98, Metabolic Activation: RAT LIVER S-9, PHENOBARBITAL AND BETA-NAPHTHOFLAVONE, Method: PREINCUBATION
  mutagenic call: inactive; negative
[1]
  mutagenic call: inactive; negative
Test System: AMES SALMONELLA TYPHIMURIUM, Strain/Indicator: TA100, Metabolic Activation: RAT LIVER S-9, PHENOBARBITAL AND BETA-NAPHTHOFLAVONE, Method: PREINCUBATION
  mutagenic call: inactive; negative
Test System: AMES SALMONELLA TYPHIMURIUM, Strain/Indicator: TA1535, Metabolic Activation: NONE, Method: PREINCUBATION
  mutagenic call: inactive; negative
Test System: AMES SALMONELLA TYPHIMURIUM, Strain/Indicator: TA1535, Metabolic Activation: RAT LIVER S-9, PHENOBARBITAL AND BETA-NAPHTHOFLAVONE, Method: PREINCUBATION
  mutagenic call: inactive; negative
Test System: AMES SALMONELLA TYPHIMURIUM, Strain/Indicator: TA1537, Metabolic Activation: NONE, Method: PREINCUBATION
  mutagenic call: inactive; negative
Test System: AMES SALMONELLA TYPHIMURIUM, Strain/Indicator: TA1537, Metabolic Activation: RAT LIVER S-9, PHENOBARBITAL AND BETA-NAPHTHOFLAVONE, Method: PREINCUBATION
  mutagenic call: inactive; negative
Test System: E.COLI, Strain/Indicator: WP2UVRA/PKM101, Metabolic Activation: NONE, Method: PREINCUBATION
  mutagenic call: inactive; negative
Test System: E.COLI, Strain/Indicator: WP2UVRA/PKM101, Metabolic Activation: RAT LIVER S-9, PHENOBARBITAL AND BETA-NAPHTHOFLAVONE, Method: PREINCUBATION
  mutagenic call: inactive; negative

## CC(=O)Oc1c(OC(C)=O)c2c([N+](=O)[O-])ccc3c4ccccc4c4cccc1c4c23
Test System: AMES SALMONELLA TYPHIMURIUM, Strain/Indicator: TA98, Metabolic Activation: NONE', Method: STANDARD PLATE
  mutagenic call: active; positive
Test System: AMES SALMONELLA TYPHIMURIUM, Strain/Indicator: TA100, Metabolic Activation: NONE, Method: STANDARD PLATE
  mutagenic call: active; positive

## Nc1c(O)cccc1C(=O)O
[1]
  mutagenic call: inactive; negative

## [Cr]
Test System: AMES SALMONELLA TYPHIMURIUM, Strain/Indicator: TA98, Metabolic Activation: NONE, Method: STANDARD PLATE
  mutagenic call: active; positive
Test System: AMES SALMONELLA TYPHIMURIUM, Strain/Indicator: TA98, Metabolic Activation: RAT, LIVER, S-9, PHENOBARBITAL, Method: STANDARD PLATE
  mutagenic call: inactive; negative
Test System: AMES SALMONELLA TYPHIMURIUM, Strain/Indicator: TA102, Metabolic Activation: NONE, Method: STANDARD PLATE
  mutagenic call: inactive; negative
Test System: AMES SALMONELLA TYPHIMURIUM, Strain/Indicator: TA102, Metabolic Activation: RAT, LIVER, S-9, PHENOBARBITAL, Method: STANDARD PLATE
  mutagenic call: inactive; negative
Test System: AMES SALMONELLA TYPHIMURIUM, Strain/Indicator: TA1535, Metabolic Activation: NONE, Method: STANDARD PLATE
  mutagenic call: active; positive
Test System: AMES SALMONELLA TYPHIMURIUM, Strain/Indicator: TA1535, Metabolic Activation: RAT, LIVER, S-9, PHENOBARBITAL, Method: STANDARD PLATE
  mutagenic call: inactive; negative
Test System: AMES SALMONELLA TYPHIMURIUM, Strain/Indicator: TA1537, Metabolic Activation: NONE, Method: STANDARD PLATE
  mutagenic call: inactive; negative
Test System: AMES SALMONELLA TYPHIMURIUM, Strain/Indicator: TA1537, Metabolic Activation: RAT, LIVER, S-9, PHENOBARBITAL, Method: STANDARD PLATE
  mutagenic call: inactive; negative

## CC[C@@]1(O)C[C@H](O[C@H]2C[C@H](N(C)C)[C@H](O[C@H]3C[C@H](O)[C@H](O[C@@H]4O[C@@H](C)C(=O)C=C4N)[C@H](C)O3)[C@H](C)O2)c2c(cc3c(c2O)C(=O)c2c(O)ccc(O)c2C3=O)[C@H]1C(=O)OC
Test System: AMES SALMONELLA TYPHIMURIUM, Strain/Indicator: TA98, Metabolic Activation: NONE
  mutagenic call: active; positive
Test System: AMES SALMONELLA TYPHIMURIUM, Strain/Indicator: TA98, Metabolic Activation: RAT, LIVER, S-9, AROCLOR 1254
  mutagenic call: active; positive
